The numbers were not newly measured in patent US20070123520A1 (priority 2005, published 2007), which cites them from elsewhere.

The conditions of series [1]: in vivo.
For series [2], the system named is sheep. The settings on record: in vivo.
The conditions of series [3]: in vivo. This is another data set of the same source.
Series [4] concerns methemoglobinemia. The conditions noted are these: in vivo, iv, 1 mg/kg.
The conditions of series [5]: in vivo. This is another data set of the same source.
For series [6] the following is noted: in vivo. The source holds these as a separate data set.
Series [7] deals with influenza A viruses.

As for `CN(C)c1ccc2nc3ccc(N(C)C)cc3[s+]c2c1.[Cl-]` [methylene blue, 3,7-Bis(dimethylamino)-phenothiazin-5-ium chloride], the “crossing of the blood-milk barrier” value in series [1] is recorded as “crosses the blood-milk barrier easily”. The methemoglobin production entry in series [2] is listed as “minimal”. Moreover, the hematologic changes entry in series [2] (30 mg/kg) is recorded as “no hematologic changes”. For the same molecule, the “overall elimination rate constant” value in series [3] is 0.0076 ± 0.0016 min⁻¹. Moreover, in series [4], the treatment of methemoglobinemia entry was “effective”. Also, the “absorption from the GI tract” value in series [5] was “absorbed well”. The “Oral absorption (range)” value in series [5] (po) is given as 53-97%. Also, in series [6], the Side effects entry is “blue urine, occasional nausea, anemia and fever”; the side effects entry is given as “minimal side effects”.

In the case of `CC(N)C12CC3CC(CC(C3)C1)C2` (stereo not shown) [rimantadine], in series [7], the “activity against influenza A viruses” value is on record as “activity”.

`NC12CC3CC(CC(C3)C1)C2` [amantadine]: the “activity against influenza A viruses” value in series [7] is “activity”.

In the case of `CCOC(=O)C1=C[C@@H](OC(CC)CC)[C@H](NC(C)=O)[C@@H](N)C1` [oseltamivir], the “activity against influenza A viruses” value in series [7] is on record as “activity”.

Regarding `CC(=O)N[C@H]1[C@H]([C@H](O)[C@H](O)CO)OC(C(=O)O)=C[C@@H]1N=C(N)N` [zanamivir], the “activity against influenza A viruses” value in series [7] is “activity”.
